Earlier results, collected in US7618987B2, “Acylated piperidine derivatives as melanocortin 4-receptor agonists” (Merck & Co., Inc., priority 2004, dated 2009).

What was measured:
[1] = in vivo, po
[2] = test system: males with psychogenic erectile dysfunction

Substance: Ac-Nle-c[Asp-His-DPhe-Arg-Trp-Lys]-NH2 [MT-II]
- absorption into the systemic circulation [1]: not absorbed into the systemic circulation
- adverse reactions observed ([2]; in vivo): nausea, flushing, loss of appetite, stretching, and yawning
- duration of action ([2]; in vivo): approximately 2.5 hours
- time to onset of erection ([2]; in vivo): 10 to 20 min
- response rate ([2]; injected intramuscularly or subcutaneously): 75%
